Consider 6 molecules from PubChem BioAssay (NCI).

“And” between values parts separate entries of the source, which are not always exact repeats. Identical values can stand only once.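 Assay format: 96-well plates, 48-hour exposure. The concentration for 50% growth inhibition is given as GI50. TGI is the concentration that stops growth completely.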 A value given as a limit tells only on which side of the number the result lay.

Assay in all cases: NCI anticancer screen, dose series, 48 h
Experiment [1] has as its system NCI-H23 lung.
The subject of experiment [2] is MOLT-4 leukemia.
Experiment [3] relates to SF-295 CNS.
The test system of experiment [4] is A549 NSCLC.
Experiment [5] concerns K-562 leukemia.
Experiment [6] concerns MCF7 breast.
Experiment [7] has as its system NCI/ADR-RES ovarian.
Experiment [8] concerns RXF 393 renal.
For experiment [9], the system named is BT-549 breast.
For experiment [10], the system named is HL-60(TB) leukemia.

For the molecule `C=C1C(=O)O[C@H]2[C@H]1CC/C(COC(=O)c1cc3cc(OC)ccc3[nH]1)=C\CC[C@@]1(C)O[C@@H]21`, the GI50 is 1.49 µM in [1]; 1.32 µM in [2]; 2.42 µM in [3]; 1.66 µM in experiment [4]; 0.562 µM in [5]; 0.341 µM in experiment [6]. Moreover, the GI50 is 1.68 µM in experiment [7], 1.14 µM in [8], 1.06 µM in [9] and 0.326 µM in [10]. In addition, the TGI in [1] stood at 2.97 µM; in experiment [2] it was 5.21 µM; in experiment [3], 10.8 µM; in experiment [4], 3.38 µM; in [5], 10.8 µM; in experiment [6], 1.74 µM. The TGI in [7] stood at 4.9 µM; in experiment [8], 2.39 µM; in experiment [9], 2.86 µM; in experiment [10] it was 2.08 µM.
Take `COc1ccc(NC2=C(Br)C(=O)C(C)=C(C)C2=O)cc1`: the GI50 in [1] is 4.41 µM; in [2], 2.67 µM; in experiment [3] it was 13.8 µM; in experiment [4] it was 18.7 µM; in experiment [5], 2.25 µM; in experiment [6] it was 1.78 µM. The GI50 was 2.04 µM in experiment [7], 2.71 µM in experiment [8], 11.8 µM in experiment [9] and 2.34 µM in experiment [10]. Further, the TGI in experiment [1] was 23.7 µM; in experiment [2], over 100 µM; in experiment [3] it was 27 µM; in experiment [4] it was 45.7 µM; in [5], over 100 µM; in experiment [6] it was 3.77 µM. Moreover, the TGI in experiment [7] was 4.65 µM; in experiment [8], 8.13 µM; in experiment [9] it was 24.4 µM; in experiment [10], 6.82 µM.
For `Oc1ccc(Cc2ccccc2)c2cccnc12`, the GI50 in experiment [1] is 2.9 µM; in experiment [2], 1.41 µM; in experiment [3] it was 1.34 µM; in experiment [4], 4.21 µM; in [5] it was 0.836 µM; in experiment [6] it was 7.46 µM. Further, the GI50 in [7] was 0.49 µM; in [8], 2.3 µM; in experiment [9], 2.33 µM; in experiment [10] it was 1.56 µM. The TGI is 57.1 µM in experiment [1]; 93.8 µM in experiment [2]; 20.5 µM in experiment [3]; 71.9 µM in [4]; over 100 µM in [5]; over 100 µM in [6]. In addition, the TGI was found to be 13.3 µM in [7], 19.2 µM in [8], 26.7 µM in [9] and 6.65 µM in experiment [10].
Turning to `CC(=O)[CH-]C(C)=O.CC(=O)[CH-]C(C)=O.N=CC=N.[Sn+2]`, the GI50 in experiment [1] is 3.23 µM; in experiment [2], 2.03 µM; in experiment [3], 10.4 µM; in [4] it was 9.6 µM; in [5] it was 2.19 µM; in experiment [6], 2.63 µM. Moreover, the GI50 is 3.15 µM in [7], 1.53 µM in experiment [8], 2.76 µM in experiment [9] and 2.09 µM in experiment [10]. Besides, the TGI in [1] was determined as 10.9 µM; in [2] it was 7.47 µM; in [3], 23.3 µM; in [4], 22.4 µM; in experiment [5], 13 µM; in experiment [6], 12 µM. The TGI in experiment [7] was determined as 12.6 µM; in [8], 3.34 µM; in experiment [9], 8.25 µM; in experiment [10] it was 15.3 µM.
For `COc1ccccc1C(=O)c1ccc2ccccc2c1`, the TGI is over 100 µM in experiment [1]; 34 µM in experiment [2]; 79.8 µM in experiment [3]; over 100 µM in experiment [4]; over 100 µM in experiment [5]; over 100 µM in experiment [6]. For the same molecule, the TGI in experiment [7] was over 100 µM; in [8] it was 61 µM; in experiment [9] it was 52.7 µM; in [10], 21.8 µM.
Take `CC(=O)O[C@H]1C(=O)[C@@]2(C)[C@H]([C@H](OC(=O)c3ccccc3)[C@]3([O-])C[C@H](OC(=O)[C@H]([O-])[C@@H](NC(=O)c4ccccc4)c4ccccc4)C(C)=C1C3(C)C)[C@]1(OC(C)=O)CO[C@@H]1C[C@@H]2[O-].[Fe+3]`: the GI50 was 0.0685 µM and 0.164 µM in experiment [1]; 0.0836 µM in experiment [3]; 0.0335 µM and 0.0852 µM in experiment [4]; 0.0839 µM and 0.0988 µM in experiment [5]; 0.0226 µM and 0.0315 µM in [6]; 19.2 µM in experiment [7]. Besides, the GI50 in experiment [8] was 0.117 µM and 0.0955 µM; in experiment [9], 0.309 µM; in experiment [10], 0.0639 µM. Further, the TGI in experiment [1] was 65 µM and > 100 µM; in experiment [2], 65 µM and > 100 µM; in experiment [3], over 100 µM; in experiment [4], 65 µM and > 100 µM; in experiment [5] it was 65 µM and > 100 µM; in [6], 65 µM and 32.7 µM. In addition, the TGI in experiment [7] was 15.9 µM and > 100 µM; in experiment [10] it was 0.301 µM.
